What was measured:
Assay type in all cases: in vivo, mice (Std:ddY, male)
[1] = test system: pain threshold (tail-pressure); test: Analgesic activity by the tail-pressure method (s.c.); settings: mouse, 10 mg/10 ml at 10 ml/kg s.c., 1 hour after administration, mean ± standard error
Experimental: (1) Measurement of Analgesic Activity by the Tail-Pressure Method
Std:ddY Strain male mice (20-25 g) were fasted for one day before the experiment, and were used. After test compounds shown in Table 1 was formed to a salt with tartaric acid, this salt was dissolved in 0.9% physiological saline solutions at the rate of 10 mg/10 ml to give the test compoun d solution . As a control, 0.9% physiological saline solution was used. A tail-pressure apparatus was used in this experiments. Before the administration of test compounds, the pain threshold was measured twice at intervals of 30 minutes and those mice indicating a pain threshold of 50 to 100 mmHg were selected and used. The pain threshold of each mouse was measured at 1 hour after test compound solution mentioned above was administered at 10 ml/kg, s.c. 0.9% Physiological saline solution as a control was administered at 10 ml/kg, s.c . The results were described as an inhibition rate (%) obtained from the following equation. Cutoff level of pressure was defined to be 230 mmHg for the prevention of the damage of mouse tail.
Inhibition rate (%)=(A-B)×100/(C-B)
A: Pain threshold (mmHg) after the administration of test compound solution
B: Pain threshold (mmHg) before the administration of test compound solution
C: Cutoff pressure (230 mmHg)

[2] = test system: nociceptive response (licking); test: Analgesic activity by the hot-plate method; settings: mouse, 52° C. plate, solution 10 mg/10 ml, mean ± standard error
Experimental: Measurement of Analgesic Activity by the Hot-Plate Method
Std:ddY Strain male mice (20-25 g) were fasted for one day before the experiment, and were used. After compounds shown in Table 1 were formed to the tartaric acid salts, these compounds were dissolved in 0.9% physiologocal saline solution at the rate of 10 mg/10 ml, respectively and these solution were used as test compound solution. In a control, 0.9% physiological saline solution was used. Mice were placed on a cyrindric hot plate (diameter: 22 cm, height: 11 cm) made of copper which was fixed in a water bath adjusted to 52° C. so that each animal's four paws came into contact with the plate and the time taken to show the nociceptive response (licking) as an index of pain was measured. Mice showing response latency above 25 seconds were excluded from the experiment. To prevent a burn damage of mouse tissue by heating, cutoff time of 50 seconds was defined. The results were described as an inhibition rate (%) obtained from the following equation.
Inhibition rate (%)=(A-B)×100/(50-B)
A: Response latency (seconds) after the administration of test compound solution
B: Response latency (seconds) before the administration of test compound solution

[3] = test system: carrageenin-induced paw edema; test: Antiinflammatory activity by the carrageenin-induced hind paw edema; settings: mouse, 30 mg/kg p.o., mean ± standard error, n = 6
Experimental: Measurement of Antiinflammatory Activity by the Carrageenin-Induced Hind Paw Edema
Std:ddY Strain male mice (20-25 g) were fasted for one day before the experiment, and were used. After test compounds shown in Table 1 was formed to a salt with tartaric acid, this salt was dissolved in sterilized and distilled water at the rate of 30 mg/10 ml to give the test compound solution. As a control, sterilized and distilled water was used. One hour after the oral administration of test compound solutions, 25 μl of λ-carrageenin suspended in 0.9% physiological saline solution (0.5 mg/25 μl) was injected s.c. under the plantar surface of the right hind paw of a mouse and 25 μl of 0.9% physiological saline solution was injected s.c. under the plantar surface of the left hind paw of the same mouse. Three hours and five hours after carrageenin injection, the […] of the paw was measured with a dial gauge calliper. To the control group, One hour after the oral administration of sterilized and distilled water at the rate of 10 ml/kg, 25 μl of λ-carrageenin (0.5 mg/25 μl) suspended in 0.9% physiological saline solution was injected s.c. under the plantar surface of the right hind paw of a mouse and 25 μl of 0.9% physiological saline solution was injected s.c. under the plantar surface of the left hind paw of the same mouse and the later operation was done in the same manner as in the test compound dosing group mentioned above. The results were described as a swelling rate (%) obtained from the following equation.
Swelling rate (%)=(R-L)×100/L
R: the thickness of the right hind paw
L: the thickness of the left hind paw

[4] = test system: pain threshold (tail-pressure); test: Tail-pressure method, experiment combined with morphine administration; settings: mean ± standard error, n = 7
Experimental: (3) Experiment Combined with Morphine Administration
Std:ddY Strain male mice (20-25 g) were fasted for one day before the experiment, and were used. In this experiment, the tartaric acid salt of a compound of number (2) in Table 1 and morphine hydrochloride were used. The tartaric acid salt of a compound of number (2) was dissolved in 0.9% physiological saline solution at the rate of 7 mg/10 ml. Morphine hydrochloride was dissolved in 0.9% physiological saline solution at the rates of 5 mg/2 ml, 3 mg/2 ml and 1 mg/2 ml. As a control, 0.9% phisiological saline solution was used. A tail-pressure apparatus was used in this experiments. Before the administration of test compounds, the pain threshold was measured twice at intervals of 30 minutes and those mice indicating a pain threshold of 50 to 100 mmHg were selected and used. Mice was divided in the following four groups, (i) control group, (ii) the administration group of the tartaric acid salt of a compound of number (2), (iii) the administration group of morphine hydrochloride and (iv) the combined administration group with the tartaric acid salt of a compound of number (2) and morphine hydrochloride. In the administration group of the tartaric acid salt of a compound of number (2), 0.9% physiological saline solution of this tartaric acid salt mentioned above was injected s.c. at the rate of 10 ml/kg and, 30 minutes later, 0.9% physiological saline solution was injected i.v. at the rate of 2 ml/kg. In the administration group of morphine hydrochloride, 0.9% physiological saline solution was injected s.c. at the rate of 10 ml/kg and, 30 minutes later, the above physiological saline solution of morphine hydrochloride was injected i.v. at the rate of 2 ml/kg. In the combined administration group with the tartaric acid salt of a compound of number (2) and morphine hydrochloride,the above physiological saline solution of the tartaric acid salt of a compound of number (2) was injected s.c. at the rate of 10 ml/kg and, 30 minutes later, the above physiological saline solution of morphine hydrochloride was injected i.v. at the rate of 2 ml/kg. In control group, 0.9% physiological saline solution was injected s.c. at the rate of 10 ml/kg and, 30 minutes later, 0.9% physiological saline solution was injected i.v. at the rate of 2 ml/kg. Each pain threshold was measured 10, 20 and 30 minutes after an intravenous injection. The results were described in Table 9 as an inhibition rate (%) indicating in the preceding paragraph (1).

[5] = test system: pain threshold (tail-pressure); test: Tail-pressure method, comparison with morphine (i.v.); settings: mean ± standard error
Experimental: (2) Comparison with Morphine
Std:ddY Strain male mice (20-25 g) were fasted for one day before the experiment, and were used. In this experiment, the tartaric acid salt of a compound of number (2) in Table 1 and morphine hydrochloride as a possitive control were used. This tartaric acid salt was dissolved in 0.9% physiological saline solution at the rates of 5 mg/2 ml, 3 mg/2 ml and 1 mg/2 ml. Morphine hydrochloride was dissolved in 0.9% physiological saline solution at the rates of 5 mg/2 ml, 3 mg/2 ml and 1 mg/2 ml. As a negative control, 0.9% phisiological saline solution was used. A tail-pressure apparatus was used in this experiments. Before the administration of test compounds, the pain threshold was measured twice at intervals of 30 minutes and those mice indicating a pain threshold of 50 to 100 mmHg were selected and used. The pain threshold of each mouse was measured at 10, 20 and 30 minutes after test compound solution mentioned above was administered at 2 ml/kg, i.v. 0.9% Physiological saline solution as a control was administered i.v. The results were described as an inhibition rate (%) indicating in the preceding paragraph (1).

[6] = test system: pain threshold (tail-pressure); test: Tail-pressure method, experiment combined with morphine antagonist (levallorphan); settings: mean ± standard error
Experimental: (4) Experiment Combined with Morphine Antagonist
Std:ddY Strain male mice (20-25 g) were fasted for one day before the experiment, and were used. In this experiment, the tartaric acid salt of a compound of number (2) in Table 1, morphine hydrochloride and levallorphan hydrochloride of an opioid antagonist were used. The tartaric acid salt of a compound of number (2) was dissolved in 0.9% physiological saline solution at the rate of 10 mg/2 ml. Morphine hydrochloride was dissolved in 0.9% physiological saline solution at the rate of 10 mg/2 ml. Levallorphan hydrochloride was dissolved in 0.9% physiological saline solution at the rate of 1 mg/10 ml. As a control, 0.9% physiological saline solution was used. A tail-pressure apparatus was used in this experiments. Before the administration of levallorphan hydrochloride, the pain threshold was measured twice at intervals of 30 minutes and those mice indicating a pain threshold of 50 to 100 mmHg were selected and used. Levallorphan hydrochloride solution mentioned above was administered s.c. at the rate of 10 ml/kg and, 30 minutes later, the above tartaric acid salt solution compound of number (2) or morphine hydrochloride solution was injected i.v. at the rate of 2 ml/kg, respectively. Each pain threshold was measured 10, 20 and 30 minutes after an intravenous injection. In control group, 0.9% physiological saline solution was injected i.v. at the rate of 2 ml/kg at 30 minutes after s.c. administration at 10 ml/kg of 0.9% physiological saline solution. In the single administration group of levallorphan hydrochloride, levallorphan hydrochloride solution mentioned above was administered s.c. at the rate of 10 ml/kg and, 30 minutes later, 0.9% physiological saline solution was injected i.v. at the rate of 2 ml/kg. The results were described in Table 10 as an inhibition rate (%) indicating in the preceding paragraph (1).

In the case of COCC12CCC(OC)C34C5CC6(O)C(OC)C(OC(C)=O)C(O)(C5C6OC(=O)c5ccc(Cl)cc5)C(C(OC)C13)C4N(C)C2 (centres unmarked) [(6), 15-O-acetyl-14-O-p-chlorobenzoylhypaconine], the “Inhibition rate (tail-pressure method)” value [1] is reported as 27 ± 11%, the “Inhibition rate (hot-plate method)” value [2] is reported as 46 ± 8% and the Swelling rate ([3]; 3 hour) is reported as 46 ± 5%. For the same molecule, the Swelling rate ([3]; 5 hour) was 60 ± 5%.
With CCN1CC2(COC)C(OC(C)=O)CC(OC)C34C5CC6(O)C(OC)C(OC(C)=O)C(O)(C5C6OC(=O)c5ccc(Cl)cc5)C(C(OC)C23)C14 (centres unmarked) [(4), 3,15-di-O-acetyl-14-O-p-chlorobenzoylaconine] the “Inhibition rate (tail-pressure method)” value [1] was 29 ± 8%, the “Inhibition rate (hot-plate method)” value [2] was 35 ± 9% and the Swelling rate ([3]; 3 hour) was 50 ± 7%. It also gave a Swelling rate ([3]; 5 hour) of 55 ± 9%.
Work on CN1CC[C@]23c4c5ccc(O)c4O[C@H]2[C@@H](O)C=C[C@H]3[C@H]1C5 [morphine, reference compound] yielded an Inhibition rate ([4]; morphine 1 mg/kg i.v. alone, 10 min) of 2 ± 2%, an Inhibition rate ([4]; morphine 1 mg/kg i.v. alone, 20 min) of 3 ± 4% and an Inhibition rate ([4]; morphine 1 mg/kg i.v. alone, 30 min) of 1 ± 2%. It also gave an Inhibition rate ([4]; morphine 3 mg/kg i.v. alone, 10 min) of 11 ± 8%, an Inhibition rate ([4]; morphine 3 mg/kg i.v. alone, 20 min) of 15 ± 9% and an Inhibition rate ([4]; morphine 3 mg/kg i.v. alone, 30 min) of 10 ± 6%. The Inhibition rate ([4]; morphine 5 mg/kg i.v. alone, 10 min) was 36 ± 10%, the Inhibition rate ([4]; morphine 5 mg/kg i.v. alone, 20 min) was 32 ± 11% and the Inhibition rate ([4]; morphine 5 mg/kg i.v. alone, 30 min) was 26 ± 8%. For the same molecule, the Inhibition rate ([5]; 1 mg/kg i.v., 10 minutes) was 1 ± 2%, the Inhibition rate ([5]; 1 mg/kg i.v., 20 minutes) was 2 ± 2% and the Inhibition rate ([5]; 1 mg/kg i.v., 30 minutes) was 2 ± 1%. The Inhibition rate ([5]; 3 mg/kg i.v., 10 minutes) was 13 ± 7%, the Inhibition rate ([5]; 3 mg/kg i.v., 20 minutes) was 18 ± 10% and the Inhibition rate ([5]; 3 mg/kg i.v., 30 minutes) was 12 ± 8%. For the same molecule, the Inhibition rate ([5]; 5 mg/kg i.v., 10 minutes) was 38 ± 12%, the Inhibition rate ([5]; 5 mg/kg i.v., 20 minutes) was 30 ± 10% and the Inhibition rate ([5]; 5 mg/kg i.v., 30 minutes) was 29 ± 12%. For the same molecule, the Inhibition rate ([6]; 10 mg/kg i.v., with levallorphan 1 mg/kg s.c. 30 minutes before, 10 min) was 10 ± 1%, the Inhibition rate ([6]; 10 mg/kg i.v., with levallorphan 1 mg/kg s.c. 30 minutes before, 20 min) was 10 ± 7% and the Inhibition rate ([6]; 10 mg/kg i.v., with levallorphan 1 mg/kg s.c. 30 minutes before, 30 min) was 20 ± 6%. For the same molecule, the Inhibition rate ([6]; 10 mg/kg i.v., without levallorphan, 10 min) was 70 ± 13%, the Inhibition rate ([6]; 10 mg/kg i.v., without levallorphan, 20 min) was 73 ± 9% and the Inhibition rate ([6]; 10 mg/kg i.v., without levallorphan, 30 min) was 65 ± 12%.
C=CCN1CC[C@]23CCCC[C@H]2[C@H]1Cc1ccc(O)cc13 [levallorphan] gave an Inhibition rate ([6]; levallorphan 1 mg/kg s.c. alone, 10 min after i.v. injection) of 3 ± 4%, an Inhibition rate ([6]; levallorphan 1 mg/kg s.c. alone, 20 min after i.v. injection) of -3 ± 4% and an Inhibition rate ([6]; levallorphan 1 mg/kg s.c. alone, 30 min after i.v. injection) of 1 ± 3%.

Source: patent US5770604A, “Aconitine compound and an antipyretic/analgesic/anti-inflammatory agent” (priority 1994, dated 1998)
